Assay results taken from patent US9394254B2, “Antibiotic and anti-parasitic agents that modulate class II fructose 1,6-bisphosphate aldolase” (priority 2013, dated 2016).

What was measured:
MtFBA [1] = target: T1, MtFBA (Mycobacterium tuberculosis (strain ATCC 25618 / H37Rv), UniProt P9WQA3); type: binding; conditions: 25° C.
[2] = Calorimetric titration into MtFBA buffer with 200 μM ZnCl2 (no enzyme); type: binding; conditions: 1 mM compound titrated into MtFBA buffer with 200 μM ZnCl2, 25° C.
Method: FIG. 5 provides data from the calorimetric titration of HCA. […] Top graphs represent raw heat data and bottom graphs are integrated heat peaks gained at 25° C.
Top graphs represent raw heat data and bottom graphs are integrated heat peaks gained at 25° C. from 25 injections of Regis 5 into 170 μL of 20 mM Tricine pH 8.0, 100 mM NaCl, and either (a) 700 μM MtFBA with 100 μM ZnCl2 or (b) 200 μM ZnCl2. Data sets were collected in duplicate, analyzed with NanoAnalyze™ software, and fit to an independent model concurrently with a bank constant model to adjust for a heat of dilution.

MtFBA [3] = target: T1, MtFBA; experiment: MtFBA enzyme inhibition; type: biochemical; conditions: for % Inhibition at 1 mM: 1 mM compound
[4] = target: class IIa FBA isolated from E. coli (Escherichia coli (strain K12), UniProt P0AB71); experiment: Inhibition of class IIa FBA from E. coli; type: biochemical; conditions: 25 μM HCA
class IIa FBA isolated from E. coli, sequence (P0AB71 whole entry, looked up): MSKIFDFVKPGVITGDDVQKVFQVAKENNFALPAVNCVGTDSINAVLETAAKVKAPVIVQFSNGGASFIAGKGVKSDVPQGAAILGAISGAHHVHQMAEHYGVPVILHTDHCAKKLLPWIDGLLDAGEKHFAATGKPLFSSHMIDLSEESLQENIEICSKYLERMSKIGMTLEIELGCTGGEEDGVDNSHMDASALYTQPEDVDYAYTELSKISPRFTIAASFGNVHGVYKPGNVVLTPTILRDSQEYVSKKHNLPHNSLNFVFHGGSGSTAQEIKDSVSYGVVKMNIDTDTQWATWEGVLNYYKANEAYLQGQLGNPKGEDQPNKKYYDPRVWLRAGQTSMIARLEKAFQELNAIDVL
Method: Class II FBAs can be broken down into two families (a/b) whose distribution among bacterium is independent of Gram staining determined phylogenetic groups. In this illustration, a single concentration of HCA at 25 μM was tested for the inhibition of class IIa FBA isolated from E. coli and class IIb FBA originating from methicillin-resistant S. aureus (MRSA).
Error bars represent standard deviations from the average.

class I FBA [5] = target: class I FBA (Oryctolagus cuniculus (Rabbit), UniProt P00883); experiment: Inhibition of class I FBA from rabbit muscle; type: biochemical; conditions: concentrations as high as 1 mM
class I FBA (Oryctolagus cuniculus (Rabbit), UniProt P00883), sequence (P00883 whole entry, looked up): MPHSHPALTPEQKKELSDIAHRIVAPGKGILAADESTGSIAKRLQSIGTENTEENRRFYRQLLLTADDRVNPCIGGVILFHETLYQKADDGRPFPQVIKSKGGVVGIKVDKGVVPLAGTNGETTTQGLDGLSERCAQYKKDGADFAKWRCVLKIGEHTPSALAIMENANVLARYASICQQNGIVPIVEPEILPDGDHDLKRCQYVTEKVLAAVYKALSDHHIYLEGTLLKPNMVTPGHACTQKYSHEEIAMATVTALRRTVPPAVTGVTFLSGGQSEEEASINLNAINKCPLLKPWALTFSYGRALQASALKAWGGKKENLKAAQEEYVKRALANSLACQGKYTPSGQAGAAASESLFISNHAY

class I FBA [6] = conditions: human muscle, concentrations as high as 1 mM

SMILES: O=C(O)c1ccc2cccc(O)c2n1 [Compound 5]
- n (ITC stoichiometry) (MtFBA [1]): 0.94±0.14
- ΔH (MtFBA [1]; ITC): -6.867 ± 0.139 kcal/mol
- ΔS (MtFBA [1]; ITC): 2.44±3.12 J mol^−1 K^−1
- Kd (MtFBA [1]; ITC, 5 mM compound into 700 μM MtFBA, 20 mM Tricine pH 8.0, 100 mM NaCl, 100 μM ZnCl2, read-out: dissociation constant Kd): 6.94 ± 0.97 µM
- binding to buffer Zn(II) [2]: no appreciable binding
- IC50 (MtFBA [3]; FIG. 6A inset, serial dilutions of compound): 17 ± 2.1 µM
- IC50 (MtFBA [3]; SAR table): 14 ± 2 µM
- inhibition at 1000 µM (MtFBA [3]; read-out: % Inhibition at 1 mM): 95 ± 4.1%
- % inhibition [4]: 42.2±2.8%
- inhibition of class I FBA (class I FBA [5]): no inhibitory affects
- inhibition of class I FBA (class I FBA [6]): no inhibitory affects

SMILES: O=C(O)c1ccc2cc(F)cc(O)c2n1 [Compound 6F-HCA, 6-fluoro-8-hydroxyquinoline-2-carboxylic acid]
- increase in potency toward the enzyme relative to HCA (MtFBA [3]; fluorine at position 6 versus HCA): 50%

SMILES: Oc1cccc2cccnc12 [Compound 6]
- % Inhibition at 1 mM (MtFBA [3]): 54 ± 18%
- IC50 (MtFBA [3]; SAR table): 300 ± 67 µM

SMILES: Nc1cccc2cccnc12 [Compound 18]
- % Inhibition at 1 mM (MtFBA [3]): 68 ± 2.2%
- IC50 (MtFBA [3]; SAR table): 79 ± 10 µM

SMILES: CS(=O)(=O)Nc1ccc2cccc(O)c2n1 [Compound 34]
- % Inhibition at 1 mM (MtFBA [3]): 12 ± 5.4%
- IC50 (MtFBA [3]; SAR table): 570 ± 87 µM
